The values below come from PMC6476926, “Dichloro-Phenyl-Benzotriazoles: A New Selective Class of Human Respiratory Syncytial Virus Entry Inhibitors” (Frontiers in Chemistry, 2019).

Data set [1] deals with RSV F-protein. To be noted: read-out: experimental IC50; ref Battles et al., [2016]; cited from earlier work.
Data set [2] deals with RSV. The data set is described as follows: microbe, parasite or virus in culture. The data set is classed as cell-based, Human Respiratory Syncytial Virus (RSV) strain A2. To be noted: human respiratory syncytial virus, Vero 76, read-out: EC50 RSV.
Data set [3] has as its system HIV-1IIIB. In words: microbe, parasite or virus in culture. The data set is classed as cell-based, Human Immunodeficiency Virus type-1 (HIV-1). The conditions noted are these: Human immunodeficiency virus 1, MT4, read-out: EC50 HIV-1IIIB.
Data set [4] relates to BVDV. In words: microbe, parasite or virus in culture. The data set is classed as cell-based. The conditions noted are these: Bovine viral diarrhea virus isolates and strains, MDBK, read-out: EC50 BVDV.
The test system of data set [5] is YFV. The data set is described as follows: microbe, parasite or virus in culture. To be noted: Yellow fever virus, BHK, read-out: EC50 YFV. It is filed as cell-based.
Data set [6] concerns Reo-1. In words: microbe, parasite or virus in culture. The conditions noted are these: Reovirus sp., BHK, read-out: EC50 Reo-1. The data set is classed as cell-based, Reovirus type-1 (Reo-1).
Data set [7] concerns CV-B5. In words: microbe, parasite or virus in culture. It is filed as cell-based, Human Enterovirus B [coxsackie type B5 (CV-B5)]. The conditions noted are these: Enterovirus B, CVB5, Vero 76, read-out: EC50 CV-B5.
Data set [8] has as its system Sb-1, VSV, VV, HSV-1. The data set is described as follows: organism not typed. The data set is classed as cell-based. The conditions noted are these: Vero 76, read-out: EC50 Sb-1, VSV, VV, HSV-1.
Data set [9] relates to RSV virions. The data set is described as follows: Virucidal activity assay. It is filed as cell-based, Human Respiratory Syncytial Virus (RSV). To be noted: 20 μM, 4°C or 37°C, 1 h. How it is done:
The mixture without test sample was used as the control. At the end of incubation period, samples were serially diluted in media and titers were determined on Vero-76 cells at high dilutions, at which the compound was not active. Virus titers were determined by plaque assay in Vero-76 cells.

The subject of data set [10] is RSV. The data set is described as follows: Cell pretreatment assay. It is filed as cell-based, Human Respiratory Syncytial Virus (RSV). The conditions noted are these: Vero-76 pretreated with 20 μM, 2 h at 4°C; titer 3 days post infection. Here is the method: After removal of the compound and two gentle washes, cells were infected with RSV. After virus adsorption to cells, the inoculum was removed and the cells were then overlaid with medium, incubated for 3 days at 37°C, and then virus titers were determined by plaque assay.

Data set [11] deals with RSV. The data set is described as follows: Time of addition assay. To be noted: 20 μM. The data set is classed as cell-based, Human Respiratory Syncytial Virus (RSV). Here is the method:
After each incubation period, the monolayers were washed two times with maintenance medium and incubated with fresh medium until 10 h post-infection. Then, after 36 h the development of cytopathic effect (CPE) was evaluated microscopically and each sample was collected, centrifuged and frozen at −80°C. The viral titer was determined by plaque assay (or ELISA).

Data set [12] deals with RSV A2. The data set is described as follows: Immunofluorescence attachment assay. The conditions noted are these: 4°C, Vero-76; 20 μM 10d, 6 μg/mL dextran sulfate, 5 μM 6-azauridine. The data set is classed as cell-based, Human Respiratory Syncytial Virus (RSV). Here is the method:
Compounds' inhibitory effects on virus-cell binding event was measured by immunofluorescence performed according to the method described previously with some modifications (Maric et al., [2011]). […] After this incubation period, the monolayers were washed three times in cold PBS in order to remove unbound viral particles and then were fixed in paraformaldehyde 4%. The presence of bound virus was detected by indirect immunofluorescence. […] Abcam, Cambridge, United Kingdom). Cells were then washed three times in PBS-Tween-100 and incubated with a 1:500 dilution of an Alexa Fluor 488-labeled anti-mouse secondary antibody (Molecular Probes, Eugene, Oreg.). After a series of washes in PBS-Tween-100, cells were mounted with Vectashield (Vector Laboratories, Burlingame, CA) containing 4′,6-diamidino-2-phenylindole (DAPI) and images of each well were captured with the ZOE Fluorescent Cell Imager (Biorad).

Data set [13] has as its system RSV strain B1 cp-52. The data set is described as follows: microbe, parasite or virus in culture. It is filed as cell-based. To be noted: human respiratory syncytial virus, Vero 76, read-out: 50% inhibitory concentration RSV cp-52.
Data set [14] is described as follows: Cytotoxicity in continuous cell lines (summary statement). The data set is classed as cell-based. To be noted: continuous cell lines from different organs and species (Table 1, Table S2); read-out: CC50 in most continuous cell lines. How it is done:
Exponentially growing MT-4 cells were seeded at an initial density of 4x10^5 cells/mL in 96-well plates containing RPMI-1640 medium, supplemented with 10% fetal bovine serum (FBS), 100 units/mL penicillin G and 100 μg/mL streptomycin. MDBK, Hep-2 and BHK cells were seeded at an initial density of 6 × 10^5, 5 × 10^5, and 1 × 10^6 cells/mL, respectively, in 96-well plates containing Minimum Essential Medium with Earle's salts (MEM-E), L-glutamine, 1 mM sodium pyruvate and 25 mg/L kanamycin, supplemented with 10% horse serum (MDBK) or 10% fetal bovine serum (FBS) (BHK; Hep-2). Vero-76 cells were seeded at an initial density of 5 × 10^5 cells/mL in 96-well plates containing in Dulbecco's Modified Eagle Medium (D-MEM) with L-glutamine and 25 mg/L kanamycin, supplemented with 10% FBS. Cell cultures were then incubated at 37°C in a humidified, 5% CO2 atmosphere, in the absence or presence of serial dilutions of test compounds. The test medium used for cytotoxic and antiviral assay contained 1% of the appropriate serum. Cell viability was determined after 72, 96, or 120 h at 37°C by the MTT method for MT-4, MDBK, Hep-2, BHK and Vero-76 cells (Budge et al., [2004]).

The nature of data set [15]: in vitro. To be noted: cattle (Bos taurus).
In data set [16] the test system is RSV A2. In words: Syncytium reduction assay. The conditions noted are these: Vero-76, added 8 h p.i. at 50, 10, 2 μM, assessed 72 h p.i.
Data set [17] in a line: Cytotoxicity, MTT method, BHK cells. To be noted: Syrian hamster (Mesocricetus auratus). (In general: Tetrazolium dyes change colour on reduction, which living cells bring about.)
A short description of data set [18]: Cytotoxicity, MTT method, MT-4 cells. The conditions noted are these: human.
Data set [19] in a line: Cytotoxicity, MTT method, Vero-76 cells. To be noted: African green monkey (Cercopithecus aethiops).
Data set [20] concerns RSV. In words: Antigen reduction assay (ELISA) in RSV-infected Vero-76 cells. A general note: ELISA stands for enzyme-linked immunosorbent assay.
Data set [21] is described as follows: in vitro. To be noted: African green monkey (Cercopithecus aethiops).

Entries after “also recorded” stand apart in the source; their conditions may differ.

For the compound `Cc1ccc(CCCO)c(NCc2ccc3nc(NCCCN4CCOCC4)n(Cc4nc(C)ccc4O)c3c2)c1` [TMC353121], the IC50 in [1] is 0.0087 µM.
For the compound `O=C(Nc1ccc(-n2nc3cc(Cl)c(Cl)cc3n2)cc1)NC1CCCCC1` [10d, 1-[4-(5,6-dichloro-2H-benzo[d][1,2,3]triazol-2-yl)phenyl]-3-cyclohexylurea], the melting point (usually the temperature of the solid-liquid transition) is over 300 °C. Besides, the EC50 (usually the concentration giving half of the maximal effect) in data set [2] amounted to 2 µM. In addition, the EC50 in data set [3] was over 100 µM. Further, the EC50 in [4] is over 100 µM. The EC50 in data set [5] is over 71 µM. Moreover, in [6], the EC50 was over 71 µM. The EC50 in data set [7] is over 90 µM. The EC50 in data set [8] is over 90 µM. In addition, in [9], the virucidal effect entry was “negligible”. The “inhibition of RSV infection after cell pretreatment” value in data set [10] was “failed to inhibit RSV infection; also recorded: failed to prevent viral infection”. Moreover, the “inhibition of RSV, addition at later times” value in data set [11] (m.o.i. 1, 4–10 h after infection) was “failed to exhibit significant antiviral activity”. Further, the “inhibition of RSV, addition in early phases” value in [11] (m.o.i. 1, during the 2 h of infection (t = 0) and immediately after) is “most efficient inhibition was observed in early phases of infection”. Also, in [12], the “inhibition of viral attachment” value was “does not inhibit viral attachment; also recorded: not able to block viral binding to cells”. For the same compound, in data set [13], the IC50 is 7 ± 1 µM. For the same compound, the CC50 in data set [14] is under 70 µM. Also, the CC50 in [15] is over 100 µM. Besides, the syncytium formation result in data set [16] is “the number and the size of syncytia decreased in a dose-dependent manner; also recorded: both size and number of syncytia did not increase; also recorded: effective in reducing both syncytia area and number at a concentration of 50 μM; also recorded: dose-dependent reduction of syncytia area and number”. Moreover, the CC50 in data set [17] was 71 µM. Moreover, the CC50 in data set [18] was over 100 µM. In data set [19], the CC50 at 5 days is 90 µM. The “reduction of viral antigen” value in data set [20] (ELISA, at 20 μM) is given as 80%. Moreover, in [20] (human respiratory syncytial virus, Vero 76, read-out: EC50 viral antigen reduction), the EC50 stood at 5 µM.
For `CCCNC(=O)Nc1ccc(-n2nc3cc(Cl)c(Cl)cc3n2)cc1` [10b, 1-[4-(5,6-dichloro-2H-benzo[d][1,2,3]triazol-2-yl)phenyl]-3-propylurea], the melting point is over 300 °C. Also, in [2], the EC50 turned out to be 3 µM. In addition, the EC50 in data set [3] was over 100 µM. In addition, in data set [4], the EC50 is over 78 µM. Besides, the EC50 in [5] is over 40 µM. Further, the EC50 in data set [6] was over 40 µM. Moreover, the EC50 in data set [7] is over 30 µM. Also, the EC50 in [8] is over 30 µM. In addition, the IC50 in data set [13] was 7 ± 1 µM. The compound further had a CC50 in data set [15] of 78 µM. This compound also had a CC50 in data set [17] of 40 µM. The CC50 in data set [18] was over 100 µM. In [19], this compound displayed a CC50 at 5 days of 30 µM.
Take `NC(=O)c1ncn([C@@H]2O[C@H](CO)[C@@H](O)[C@H]2O)n1` [ribavirin, reference compound]: in data set [2], the EC50 worked out at 7 µM. In data set [21], this compound returned a CC50 at 5 days of over 100 µM.
In the case of `O=c1cnn([C@@H]2O[C@H](CO)[C@@H](O)[C@H]2O)c(=O)[nH]1` [6-azauridine, reference compound], in data set [2], the EC50 is 1.4 µM. In addition, in data set [12], the “inhibition of viral attachment” value was “not able to block viral binding”. This compound registered a CC50 at 5 days in data set [19] of at least 14 µM.
`COc1cc(C(=O)Nc2ccc(-n3nc4cc(Cl)c(Cl)cc4n3)cc2)cc(OC)c1OC` [8d, N-[4-(5,6-dichloro-2H-benzo[d][1,2,3]triazol-2-yl)phenyl]-3,4,5-trimethoxybenzamide] showed a melting point of 199 to 201 °C. The EC50 in [2] amounted to 3 µM. The EC50 in data set [3] was over 63 µM. Also, in data set [4], the EC50 stood at 35 µM. Also, the EC50 in [5] was over 35 µM. For the same compound, the EC50 in data set [6] is over 35 µM. Moreover, the EC50 in data set [7] was over 80 µM. In addition, the half-maximal effective concentration (EC50) in [8] was over 80 µM. The IC50 in data set [13] amounted to 10 ± 2 µM. For the same compound, the CC50 in [15] was over 100 µM. In data set [17], this compound registered a CC50 of 35 µM. In data set [18], this compound came in with a CC50 of 63 µM. In data set [19], this compound gave a CC50 at 5 days of 80 µM.
`O=C(NCc1ccccc1)Nc1ccc(-n2nc3cc(Cl)c(Cl)cc3n2)cc1` [10j, 1-[4-(5,6-dichloro-2H-benzo[d][1,2,3]triazol-2-yl)phenyl]-3-benzylurea] returned a melting point of over 290 °C. Further, the EC50 in data set [2] was over 100 µM. Further, in [3], the EC50 is over 100 µM. The EC50 in [4] was over 100 µM. The EC50 in data set [5] is over 100 µM. Moreover, in data set [6], the EC50 is over 100 µM. For the same compound, in [7], the EC50 was over 100 µM. Also, in [8], the EC50 was over 100 µM. The compound also registered a CC50 in data set [15] of over 100 µM. In data set [17], this compound gave a CC50 of over 100 µM. Also, the CC50 in [18] was over 100 µM. Further, in data set [19], the CC50 at 5 days was over 100 µM.
In the case of dextran sulfate [reference compound], the “inhibition of viral attachment” value in [12] is on record as “inhibits viral attachment; also recorded: efficiently blocked viral attachment”.
Turning to `COc1ccc(NC(=O)Nc2ccc(-n3nc4cc(Cl)c(Cl)cc4n3)cc2)cc1` [10g, 1-[4-(5,6-dichloro-2H-benzo[d][1,2,3]triazol-2-yl)phenyl]-3-(4-methoxyphenyl)urea], the melting point was over 290 °C. For the same compound, in data set [2], the EC50 is over 100 µM. Further, the EC50 in data set [3] was over 100 µM. In data set [4], the EC50 was over 100 µM. In addition, the EC50 in data set [5] was over 100 µM. Also, the EC50 in data set [6] is over 100 µM. Besides, the EC50 in data set [7] is over 100 µM. For the same compound, the EC50 in data set [8] was over 100 µM. Moreover, the CC50 in data set [15] was over 100 µM. In data set [17], this compound displayed a CC50 of over 100 µM. In data set [18], the CC50 is over 100 µM. For the same compound, in data set [19], the CC50 at 5 days was over 100 µM.
